The values below come from patent US11952344B2, “Heterocyclic compound and use thereof” (TAKEDA PHARMACEUTICAL COMPANY LIMITED, priority 2019, dated 2024).

The target of this assay is T1, Human NMDA (NR1/NR2B) Receptor (Homo sapiens, UniProt Q13224).
T1 construct: host or cells: HEK293
T1 sequence (Q13224 27-1484, other chains not shown): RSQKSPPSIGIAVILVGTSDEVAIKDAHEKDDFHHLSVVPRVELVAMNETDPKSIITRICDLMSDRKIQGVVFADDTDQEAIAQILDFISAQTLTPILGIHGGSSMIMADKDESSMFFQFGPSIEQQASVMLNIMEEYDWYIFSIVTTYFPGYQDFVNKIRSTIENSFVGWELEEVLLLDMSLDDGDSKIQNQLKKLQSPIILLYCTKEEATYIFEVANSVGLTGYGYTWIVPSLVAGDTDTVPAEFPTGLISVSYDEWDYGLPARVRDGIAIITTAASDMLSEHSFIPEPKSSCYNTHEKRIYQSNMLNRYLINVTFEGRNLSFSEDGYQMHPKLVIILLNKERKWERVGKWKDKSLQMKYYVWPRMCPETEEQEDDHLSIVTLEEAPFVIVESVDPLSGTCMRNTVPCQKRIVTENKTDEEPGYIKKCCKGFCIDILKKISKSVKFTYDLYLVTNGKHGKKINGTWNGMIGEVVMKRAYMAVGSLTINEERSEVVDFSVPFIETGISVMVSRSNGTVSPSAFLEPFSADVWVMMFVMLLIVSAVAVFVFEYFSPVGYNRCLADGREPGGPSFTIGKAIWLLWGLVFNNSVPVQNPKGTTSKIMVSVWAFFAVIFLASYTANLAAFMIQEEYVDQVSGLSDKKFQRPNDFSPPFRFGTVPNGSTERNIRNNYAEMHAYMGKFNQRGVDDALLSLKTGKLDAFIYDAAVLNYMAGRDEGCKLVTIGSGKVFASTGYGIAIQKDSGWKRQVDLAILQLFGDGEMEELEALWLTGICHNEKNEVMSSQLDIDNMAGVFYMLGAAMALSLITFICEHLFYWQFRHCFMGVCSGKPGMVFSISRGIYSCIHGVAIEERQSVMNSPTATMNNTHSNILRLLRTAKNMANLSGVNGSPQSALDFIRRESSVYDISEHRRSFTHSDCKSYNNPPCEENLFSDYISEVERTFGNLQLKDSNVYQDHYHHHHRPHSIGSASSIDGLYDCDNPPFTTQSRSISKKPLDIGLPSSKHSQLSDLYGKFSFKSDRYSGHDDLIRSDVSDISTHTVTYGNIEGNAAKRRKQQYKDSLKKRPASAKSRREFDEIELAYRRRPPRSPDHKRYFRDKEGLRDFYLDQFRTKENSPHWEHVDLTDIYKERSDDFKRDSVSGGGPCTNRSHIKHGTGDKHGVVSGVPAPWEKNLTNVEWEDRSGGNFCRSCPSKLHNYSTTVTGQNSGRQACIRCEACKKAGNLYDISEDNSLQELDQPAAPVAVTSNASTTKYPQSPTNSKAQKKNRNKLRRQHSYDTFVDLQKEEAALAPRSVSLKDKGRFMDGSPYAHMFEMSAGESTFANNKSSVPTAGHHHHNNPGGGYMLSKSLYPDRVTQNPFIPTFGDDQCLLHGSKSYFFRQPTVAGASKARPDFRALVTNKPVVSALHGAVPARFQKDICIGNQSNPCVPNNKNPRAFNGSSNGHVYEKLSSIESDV
Put plainly: NR2B Ca2+ influx assay. The format is cell-based. Conditions: 10 μM compound; HEK293 cells expressing GRIN1 and GRIN2B; glutamic acid/glycine-induced Ca2+ influx, Fluo-4 fluorescence; read-out: inhibitory rate (10 μM compound concentration). The source says:
Experimental Example 1 NR2B Ca^2+ Influx Assay
To confirm the “antagonistic action on an NMDA receptor containing the NR2B subunit” of the compound of the present invention, human embryonic kidney cell expressing the “NMDA receptor composed of four subunits including 2 sets of heterodimers of NR1 and NR2B”, specifically HEK293 cell expressing human glutamate ionotropic receptor NMDA type subunit 1 (GRIN1) and human glutamate ionotropic receptor NMDA type subunit 2B (GRIN2B), was used and the activation suppressive effect (inhibitory activity) on the receptors by the compound of the present invention was measured.
HEK293 cells that express GRIN1 and GRIN2B were purchased from ChanTest (Human NMDA (NR1/NR2B) Receptor-expressing, stable replicating cell line (HEK293) catalog No. CT6121).
As an index of the NMDA receptor activation, intracellular calcium ion (Ca^2+) influx caused by the binding of glycine and glutamic acid with NR1 and NR2B, respectively, was used.
HEK293 cells that express GRIN1 and GRIN2B were cultured in a cell culture flask in DMEM/F-12 (COSMO BIO, 10-092-CM) medium added with 10% FBS (fetal bovine serum, AusGene), 100 units/mL penicillin, 100 μg/mL streptomycin, 500 μg/mL neomycin, 100 μg/mL Zeocin (registered trade mark, Invitrogen), 5 μg/mL Blasticidin, in an incubator (37° C., 5% CO2).
The cells were detached from flask with trypsin the day before the assay, suspended in a seeding medium (DMEM (Invitrogen, 31053) added with 10% FBS, 100 units/mL penicillin, 100 μg/mL streptomycin) at 8×10^5 cells/mL, seeded by 25 μL/well in a 384-well plate (Falcon, 356663) at 20000 cells/well, and cultured overnight in an incubator. On the day of the assay, tetracycline (Wako Pure Chemical Industries, Ltd., 209-16561) was diluted with the seeding medium at 2 μg/mL, added at 25 μL/well to the plate seeded with the cells, and cultured for 2 hr in an incubator. Thereafter, the medium was removed, and the cells were washed with 50 μL/well assay buffer (137 mM NaCl, 4 mM KCl, 1.8 mM CaCl2, 10 mM HEPES (pH 7.2), 10 mM Glucose, 0.1% BSA). Then, a loading buffer (assay buffer added with 2.5 μM Fluo-4AM, 2 mM Amaranth, 1 mM Tartrazine) was added at 25 μL/well, and incubation was performed in the incubator for 30 min, and at room temperature for 15 min. A solution (25 μL/well) of the Example compound diluted with the above-mentioned assay buffer at 30 μM (final concentration 10 μM) was added, and the cells were stood for 15 min at room temperature. Using FDSS7000EX/μCELL (Hamamatsu Photonics K.K.), 25 μL/well of an assay buffer containing 30 μM glutamic acid, 30 μM glycine was added, and the fluorescence signal at wavelength of Excitation 480 nm, Emission 540 nm was measured every 3 seconds for 5 min. The inhibitory activity was calculated as a relative activity value (inhibitory rate) that inhibits 100% of the cumulative value of the fluorescence value of a well added with an assay buffer free of glutamic acid, glycine, relative to the cumulative value of the fluorescence value of each well.
Regarding `COc1ncncc1CNC(=O)c1ccc(OC(F)(F)F)c(F)c1` [Example 22, 3-fluoro-N-[(4-methoxypyrimidin-5-yl)methyl]-4-(trifluoromethoxy)benzamide], the inhibition at 10 µM was 95%. Take `COc1c(F)cc(C(=O)NCc2cnccc2C)cc1F` [Example 71, 3,5-difluoro-4-methoxy-N-[(4-methylpyridin-3-yl)methyl]benzamide]: the inhibition at 10 µM worked out at 91%. The result for `COc1ccncc1CNC(=O)c1cc(F)c(OC)c(F)c1` [Example 89, 3,5-difluoro-4-methoxy-N-[(4-methoxypyridin-3-yl)methyl]benzamide] reads 92%.

In the case of `Cc1c(F)cncc1CNC(=O)c1cnc(C2CC2)c(F)c1` [Example 80, 6-cyclopropyl-5-fluoro-N-[(5-fluoro-4-methylpyridin-3-yl)methyl]pyridine-3-carboxamide], the inhibition at 10 µM came out at 94%. As for `Cc1c(Cl)cncc1CNC(=O)c1cnc(OC(F)F)c(F)c1` [Example 47, N-[(5-chloro-4-methylpyridin-3-yl)methyl]-6-(difluoromethoxy)-5-fluoropyridine-3-carboxamide], the inhibition at 10 µM stood at 97%. In the case of `COc1ncncc1CNC(=O)c1ccc(OC(F)(F)F)cc1` [Example 26, N-[(4-methoxypyrimidin-5-yl)methyl]-4-(trifluoromethoxy)-benzamide], the inhibition at 10 µM came out at 93%. Consider `COc1ccncc1CNC(=O)c1ccc(OC(F)(F)F)c(F)c1` [Example 8, 3-fluoro-N-[(4-methoxypyridin-3-yl)methyl]-4-(trifluoromethoxy)-benzamide], for which the inhibition at 10 µM worked out at 95%. The result for `COc1ncc(C(=O)NCc2cnccc2C)cc1F` [Example 44, 5-fluoro-6-methoxy-N-[(4-methylpyridin-3-yl)methyl]pyridine-3-carboxamide] reads 79%. For `CCOc1ncc(C(=O)NCc2cncnc2OC2CC2)cc1F` [Example 75, N-{[4-(cyclopropyloxy)-pyrimidin-5-yl]methyl}-6-ethoxy-5-fluoropyridine-3-carboxamide], the inhibition at 10 µM was found to be 93%. Next, `Cc1c(F)cncc1CNC(=O)c1cnc(C(C)(F)F)c(F)c1` [Example 94, 6-(1,1-difluoroethyl)-5-fluoro-N-[(5-fluoro-4-methylpyridin-3-yl)methyl]pyridine-3-carboxamide]: 91%; `COc1ncncc1CNC(=O)c1ccc(OC(F)F)c(F)c1` [Example 13, 4-(difluoromethoxy)-3-fluoro-N-[(4-methoxypyrimidin-5-yl)methyl]benzamide]: 93%; `COc1c(F)cc(C(=O)NCc2cncc(F)c2C)cc1F` [Example 67, 3,5-difluoro-N-[(5-fluoro-4-methylpyridin-3-yl)methyl]-4-methoxybenzamide]: 92%. The result for `Cc1ccncc1CNC(=O)c1ccc(C(F)(F)F)c(F)c1` [Example 53, 3-fluoro-N-[(4-methylpyridin-3-yl)methyl]-4-(trifluoromethyl)-benzamide] reads 91%; that for `COc1ncncc1CNC(=O)c1cnc(OC(F)(F)F)c(F)c1` [Example 33, 5-fluoro-N-[(4-methoxypyrimidin-5-yl)methyl]-6-(trifluoromethoxy)pyridine-3-carboxamide], 94%. Next, `COc1ccncc1CNC(=O)c1ccc(OC(F)(F)F)cc1` [Example 7, N-[(4-methoxypyridin-3-yl)methyl]-4-(trifluoromethoxy)benzamide]: 91%; `O=C(NCc1cnccc1C1CC1)c1cnc(OC(F)F)c(F)c1` [Example 15, N-[(4-cyclopropylpyridin-3-yl)methyl]-6-(difluoromethoxy)-5-fluoropyridine-3-carboxamide]: 96%. Turning to `Cc1ccncc1CNC(=O)c1cnc(OC(F)F)c(Cl)c1` [Example 27, 5-chloro-6-(difluoromethoxy)-N-[(4-methylpyridin-3-yl)methyl]pyridine-3-carboxamide], the inhibition at 10 µM is 95%. The result for `O=C(NCc1cncc(F)c1OC1CC1)c1cnc(OC(F)F)c(F)c1` [Example 39, N-{[4-(cyclopropyloxy)-5-fluoropyridin-3-yl]methyl}-6-(difluoromethoxy)-5-fluoropyridine-3-carboxamide] reads 97%. Take `O=C(NCc1cnccc1OC(F)F)c1cnc(OC(F)F)c(F)c1` [Example 99, 6-(difluoromethoxy)-N-{[4-(difluoromethoxy)pyridin-3-yl]methyl}-5-fluoropyridine-3-carboxamide]: the inhibition at 10 µM was 89%.

Turning to `Cc1ccncc1CNC(=O)c1cnc(C2CC2(F)F)c(F)c1` (centres unmarked) [Example 101, 6-(2,2-difluorocyclopropyl)-5-fluoro-N-[(4-methylpyridin-3-yl)methyl]pyridine-3-carboxamide], the inhibition at 10 µM came out at 90%. As for `O=C(NCc1cncnc1OC1CC(F)(F)C1)c1cnc(OC(F)F)c(F)c1` [Example 32, N-({4-[(3,3-difluorocyclobutyl)-oxy]pyrimidin-5-yl}methyl)-6-(difluoromethoxy)-5-fluoropyridine-3-carboxamide], the inhibition at 10 µM is 96%. On to `Cc1ccncc1CNC(=O)c1ccc(C(F)F)c(F)c1` [Example 58, 4-(difluoromethyl)-3-fluoro-N-[(4-methylpyridin-3-yl)methyl]benzamide], for which the inhibition at 10 µM turned out to be 85%.

As for `CC(C)Oc1ncncc1CNC(=O)c1cnc(OC(F)F)c(F)c1` [Example 20, 6-(difluoromethoxy)-5-fluoro-N-({4-[(propan-2-yl)oxy]pyrimidin-5-yl}methyl)pyridine-3-carboxamide], the inhibition at 10 µM came to 94%.

Turning to `Cc1ccncc1CNC(=O)c1cnc(C(F)(F)F)c(Cl)c1` [Example 52, 5-chloro-N-[(4-methylpyridin-3-yl)methyl]-6-(trifluoromethyl)pyridine-3-carboxamide], the inhibition at 10 µM came to 83%.

For `COc1ncncc1CNC(=O)c1cnc(C(C)(F)F)c(Cl)c1` [Example 96, 5-chloro-6-(1,1-difluoroethyl)-N-[(4-methoxypyrimidin-5-yl)methyl]pyridine-3-carboxamide], the inhibition at 10 µM turned out to be 85%. With `COc1ccncc1CNC(=O)c1ccc(C(F)(F)F)c(F)c1` [Example 9, 3-fluoro-N-[(4-methoxypyridin-3-yl)methyl]-4-(trifluoromethyl)benzamide], the inhibition at 10 µM turned out to be 90%. Next, `COc1ccncc1CNC(=O)c1cnc(OC(F)F)c(Cl)c1` [Example 17, 5-chloro-6-(difluoromethoxy)-N-[(4-methoxypyridin-3-yl)methyl]pyridine-3-carboxamide]: 98%; `COc1c(F)cncc1CNC(=O)c1cnc(OC(F)F)c(F)c1` [Example 6, 6-(difluoromethoxy)-5-fluoro-N-[(5-fluoro-4-methoxypyridin-3-yl)methyl]pyridine-3-carboxamide]: 95%; `CCc1ccncc1CNC(=O)c1cnc(OC(F)F)c(F)c1` [Example 38, 6-(difluoromethoxy)-N-[(4-ethylpyridin-3-yl)methyl]-5-fluoropyridine-3-carboxamide]: 94%. For the compound `Cc1ccncc1CNC(=O)c1cnc(C2CC2(F)F)c(Cl)c1` (centres unmarked) [Example 102, 5-chloro-6-(2,2-difluorocyclopropyl)-N-[(4-methylpyridin-3-yl)methyl]pyridine-3-carboxamide], the inhibition at 10 µM was 93%.

Consider `Cc1c(F)cncc1CNC(=O)c1ccc(OC(F)F)c(F)c1` [Example 69, 4-(difiuoromethoxy)-3-fluoro-N-[(5-fluoro-4-methylpyridin-3-yl)methyl]benzamide], for which the inhibition at 10 µM is 94%. Next, `CCOc1ccncc1CNC(=O)c1ccc(OC(F)F)c(F)c1` [Example 11, 4-(difluoromethoxy)-N-[(4-ethoxypyridin-3-yl)methyl]-3-fluorobenzamide]: 95%.
